Assay results published in the NIST ThermoML archive (doi:10.1021/acs.jced.6b00269).

Conditions: for viscosity / mass density: 101.33 kPa, Liquid; for viscosity: Cone and plate viscometry; for Normal melting temperature: Crystal, DTA; for mass density: Vibrating tube method; for Glass transition temperature: DSC

CCC=C[P+](CC)(CC)CC.O=[N+]([O-])c1cn[n-]c1 [(buten-1-yl)triethylphosphonium 4-nitropyrazolide]
Conditions	Normal melting temperature [°C]	viscosity [mPa·s]
–	39	–
298.15 K	–	134
303.15 K	–	102
308.15 K	–	79
313.15 K	–	63
318.15 K	–	52

CCCC[P+](CC)(CC)CC.Cc1ncc([N+](=O)[O-])[n-]1 [butyltriethylphosphonium 2-methyl-5-nitroimidazolide]
Conditions	Glass transition temperature [°C]	Normal melting temperature [°C]	mass density [kg/m3]	viscosity [mPa·s]
–	-71	17	–	–
278.15 K	–	–	–	2180
283.15 K	–	–	1074.4	1350
288.15 K	–	–	1071.3	858
293.15 K	–	–	1068.3	569
295.15 K	–	–	1067.1	–
298.15 K	–	–	1065.3	391
303.15 K	–	–	1062.3	277
308.15 K	–	–	1059.3	202
313.15 K	–	–	1056.5	150
318.15 K	–	–	1053.6	115
323.15 K	–	–	1050.7	90
328.15 K	–	–	1047.8	72
333.15 K	–	–	1044.9	58
338.15 K	–	–	1042.1	–
343.15 K	–	–	1039.2	–
348.15 K	–	–	1036.4	–
353.15 K	–	–	1033.5	–

CCCC[P+](CC)(CC)CC.O=[N+]([O-])c1cn[n-]c1 [butyltriethylphosphonium 4-nitropyrazolide]
Conditions	Normal melting temperature [°C]	mass density [kg/m3]	viscosity [mPa·s]
–	44	–	–
278.15 K	–	–	840
283.15 K	–	1087.9	551
288.15 K	–	1084.7	372
293.15 K	–	1081.5	261
295.15 K	–	1080.3	–
298.15 K	–	1078.4	189
303.15 K	–	1075.4	141
308.15 K	–	1072.4	108
313.15 K	–	1069.3	85
318.15 K	–	1066.3	67
323.15 K	–	1063.3	55
328.15 K	–	1060.3	–
333.15 K	–	1057.3	–
338.15 K	–	1054.3	–
343.15 K	–	1051.3	–
348.15 K	–	1048.4	–
353.15 K	–	1045.4	–

CC[P+](CC)(CC)C1CCCC1.O=[N+]([O-])c1cn[n-]c1 [cyclopentyltriethylphosphonium 4-nitropyrazolide]
Conditions	Normal melting temperature [°C]
–	51

CCCCCCCCCC[P+](CC)(CC)CC.O=[N+]([O-])c1cn[n-]c1 [decyltriethylphosphonium 4-nitropyrazolide]
Conditions	Glass transition temperature [°C]	Normal melting temperature [°C]	mass density [kg/m3]	viscosity [mPa·s]
–	-71	11	–	–
278.15 K	–	–	–	1620
283.15 K	–	–	1020	1030
288.15 K	–	–	1017	678
293.15 K	–	–	1013.9	461
295.15 K	–	–	1012.7	–
298.15 K	–	–	1010.9	325
303.15 K	–	–	1007.9	236
308.15 K	–	–	1004.9	175
313.15 K	–	–	1002	133
318.15 K	–	–	999.1	104
323.15 K	–	–	996.2	82
328.15 K	–	–	993.3	66
333.15 K	–	–	990.4	54
338.15 K	–	–	987.5	–
343.15 K	–	–	984.6	–
348.15 K	–	–	981.7	–
353.15 K	–	–	978.8	–

CCCCCCC[P+](CC)(CC)CC.O=[N+]([O-])c1cn[n-]c1 [triethylheptylphosphonium 4-nitropyrazolide]
Conditions	Glass transition temperature [°C]	Normal melting temperature [°C]	mass density [kg/m3]	viscosity [mPa·s]
–	-72	16	–	–
278.15 K	–	–	–	1000
283.15 K	–	–	1047.1	657
288.15 K	–	–	1044	443
293.15 K	–	–	1040.9	309
295.15 K	–	–	1039.7	–
298.15 K	–	–	1037.8	223
303.15 K	–	–	1034.8	165
308.15 K	–	–	1031.8	126
313.15 K	–	–	1028.8	97
318.15 K	–	–	1026	77
323.15 K	–	–	1023.1	62
328.15 K	–	–	1020.2	–
333.15 K	–	–	1017.3	–
338.15 K	–	–	1014.5	–
343.15 K	–	–	1011.6	–
348.15 K	–	–	1008.8	–
353.15 K	–	–	1006	–

CCCCCCCCC[P+](CC)(CC)CC.O=[N+]([O-])c1cn[n-]c1 [triethylnonylphosphonium 4-nitropyrazolide]
Conditions	Glass transition temperature [°C]	Normal melting temperature [°C]	mass density [kg/m3]	viscosity [mPa·s]
–	-72	16	–	–
278.15 K	–	–	–	1370
283.15 K	–	–	1031	888
288.15 K	–	–	1027.9	593
293.15 K	–	–	1024.9	409
295.15 K	–	–	1023.6	–
298.15 K	–	–	1021.8	291
303.15 K	–	–	1018.8	213
308.15 K	–	–	1015.8	160
313.15 K	–	–	1012.9	123
318.15 K	–	–	1009.9	96
323.15 K	–	–	1007	77
328.15 K	–	–	1004	63
333.15 K	–	–	1001.1	52
338.15 K	–	–	998.2	–
343.15 K	–	–	995.3	–
348.15 K	–	–	992.4	–
353.15 K	–	–	989.5	–

CCCCCCCC[P+](CC)(CC)CC.Cc1ncc([N+](=O)[O-])[n-]1 [triethyloctylphosphonium 2-methyl-5-nitroimidazolide]
Conditions	Glass transition temperature [°C]	mass density [kg/m3]	viscosity [mPa·s]
–	-67	–	–
278.15 K	–	–	3720
283.15 K	–	1037.8	2280
288.15 K	–	1034.6	1440
293.15 K	–	1031.5	940
295.15 K	–	1030.3	–
298.15 K	–	1028.6	637
303.15 K	–	1025.6	446
308.15 K	–	1022.7	321
313.15 K	–	1019.8	237
318.15 K	–	1016.9	179
323.15 K	–	1014.1	138
328.15 K	–	1011.2	109
333.15 K	–	1008.4	80
338.15 K	–	1005.6	–
343.15 K	–	1002.7	–
348.15 K	–	999.9	–
353.15 K	–	997.1	–
